PubChem BioAssay (NCI)
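Results reflect a 48-hour exposure of cells in 96-well plates to compound at five concentrations. Definition used: TGI = concentration required for complete inhibition of growth.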

Assays:
Test in all cases: inhibition of tumour cell growth, NCI panel, 48 h
HCC-2998 colon = test system: HCC-2998 colon
SNB-75 CNS = test system: SNB-75 CNS
HOP-92 NSCLC = test system: HOP-92 NSCLC
SK-MEL-5 melanoma = test system: SK-MEL-5 melanoma
A549 NSCLC = test system: A549 NSCLC
SR leukemia = test system: SR leukemia
SK-MEL-28 melanoma = test system: SK-MEL-28 melanoma
U251 CNS = test system: U251 CNS
SF-539 CNS = test system: SF-539 CNS
NCI-H226 lung = test system: NCI-H226 lung

Row | Compound | TGI (HCC-2998 colon) [µM] | TGI (SNB-75 CNS) [µM] | TGI (HOP-92 NSCLC) [µM] | TGI (SK-MEL-5 melanoma) [µM] | TGI (A549 NSCLC) [µM] | TGI (SR leukemia) [µM] | TGI (SK-MEL-28 melanoma) [µM] | TGI (U251 CNS) [µM] | TGI (SF-539 CNS) [µM] | TGI (NCI-H226 lung) [µM]
1 | COc1cc(C(N)=O)cc(NC(=O)/C=C/c2ccccc2)c1OC | > 100 | 93.1 | > 100 | > 100 | > 100 | > 100 | > 100 | > 100 | > 100 | 
2 | Cc1c(CCCl)c(N=[N+]=[N-])n2c(nc3ccccc32)c1C#N |  | 2.87 | 2.61 | 1.35 | 5.95 | 1.08 | 3.27 | 6.02 | 3.5 | 4.29
3 | CN(C)CCNC(=O)c1cccc2nc3cccc(F)c3nc12 | 4.31 | 13.2 | 3.63 | 2.38 | 2.85 |  | 11.5 | 6.61 | 7.7 | 3.21
4 | COC(=O)NN=C(c1ccc(Cl)cc1)c1ccc(Cl)cc1 | > 100 | > 100 |  | > 100 | > 100 | > 100 | > 100 | > 100 | > 100 | > 100
5 | O=C1CC(=O)c2c(Cl)sc(Cl)c21 |  | > 100 | > 100 | > 100 | > 100 | 75.2 | > 100 | > 100 | > 100 | > 100
6 | Cc1cc2c(cc1C)[n+](=O)c(C(=O)N1CCN(c3ccc([N+](=O)[O-])cc3)CC1)c(C)n2[O-] | > 100 |  | > 100 | > 100 | > 100 | > 100 | > 100 | 41.3 | 35.4 | 
7 | Cc1ccc(CS(=O)(=O)C/N=c2\sc3ccccc3nc2/C=C(\O)c2ccc(Cl)cc2)cc1 | > 10 | > 10 | > 10 | > 10 | > 10 | > 10 | > 10 | > 10 | > 10 | 
8 | COc1ccc(C(C2C(=O)N(C)C(=O)N(C)C2=O)C(F)(F)C(=O)N(C)C)cc1 (stereo not given) | > 100 | > 100 | > 100 | > 100 | > 100 |  | > 100 | > 100 | > 100 | > 100
9 | CC(C)C(=O)/C=C/c1ccc(Cl)cc1 | 31.9 | 33.4 | 31.6 | 21.7 | 59.7 | 26.2 |  | 25.5 | 22.6 | 
10 | Cc1ccc2c(=O)c(-c3nnc(N)s3)c[nH]c2n1 |  |  |  | > 100 | > 100 |  | > 100 | > 100 |  | > 100
11 | COc1ccc(N[C@H](CS(=O)c2ccc(C)cc2)C(F)(F)C(F)(F)F)cc1 (stereo not given in full) | > 100 | 75.6 | 64.5 | > 100 | > 100 |  | > 100 | > 100 | > 100 | > 100
12 | O=C(OCC12CC3CC(CC(C3)C1)C2)c1ccc(NCc2cc(O)ccc2O)cc1 | 4.02 | 7.23 | 17.6 | 2.9 | 12.6 |  | 3.54 | 5.33 | 1.93 | 6.71
13 | CSc1ccc2c(cc1=O)C(NC(=O)c1ccc(OC(C)=O)cc1)CCc1cc(O)c(O)c(O)c1-2 (stereo not given) | > 100 | 55.6 |  | 31.5 | > 100 | 35.3 | > 100 | 39 | 40.1 | 50.8
14 | CC(/C=C/c1ccc([N+](=O)[O-])o1)=N/N1CC(CN2CCOCC2)OC1=O (stereo not given) | > 100 |  | 30.5 | 28.6 | 98.5 | 50.4 | 38.2 | > 100 | 48.8 | 52.1
15 | CC(C)N=C(NC#N)NS(=O)(=O)c1cnccc1Nc1ccc(Cl)cc1 | > 100 | > 100 |  | > 100 | > 100 |  | > 100 | > 100 |  | > 100
16 | CCn1c(=O)ccc2ccc(N(CCO)CCO)nc21 | > 100 | > 100 |  | > 100 | > 100 | > 100 | > 100 | > 100 |  | > 100
17 | COC(=O)C1C2C=CC(C2)N1S(=O)(=O)c1ccccc1 (stereo not given) |  |  | > 100 | > 100 | > 100 |  | > 100 | > 100 | > 100 | 
18 | OCC1OC(n2nc(-c3ccccc3)nc2-c2cnccn2)C(O)C1O (stereo not given) | > 100 | > 100 | > 100 | > 100 | > 100 |  | > 100 | > 100 | > 100 | 
19 | COC(=NCCC1=CCCCC1)OC | 39.9 | > 100 | > 100 | > 100 | > 100 |  | > 100 | > 100 |  | 
20 | O=C(Nc1ccc(Cl)cc1)/C(Cc1cccc[n+]1[O-])=N\Nc1ccc([N+](=O)[O-])cc1[N+](=O)[O-] | > 100 | > 100 | > 100 | > 100 | > 100 |  | > 100 | > 100 | > 100 | 
21 | CC[C@@H](C(=O)[C@@H](C)[C@@H](O)[C@H](C)CCc1ccc(C)c(O)c1C(=O)O)[C@H]1O[C@](CC)([C@H]2CC[C@](O)(CC)[C@H](C)O2)C[C@@H]1C | 11.4 | 7.07 | 8.96 | 3.62 | 11.9 |  | 2.86 | 6.33 | 5.46 | 10.8
22 | O=C1NC(=O)C(C(c2ccc(Cl)cc2)C2C(=O)NC(=O)NC2=O)C(=O)N1 |  |  | > 100 | > 100 | > 100 |  | > 100 | > 100 |  | > 100
23 | CCOC(=O)c1cc2c([nH]1)C(=O)CC1=C2CCN1Cc1ccccc1 |  | 46.2 | 28.3 |  | 73.5 | 33.4 | 32.7 | 25.4 | 39.4 | 32.3
24 | O=C(O)c1cc(=O)[nH]c(=S)[nH]1 | > 100 | > 100 | > 100 | > 100 | > 100 |  | > 100 | > 100 |  | > 100
